Results as given in paper PMC6470675, “Design and Synthesis of New Quinoxaline Derivatives as Anticancer Agents and Apoptotic Inducers” (Molecules, 2019).
Like-named read-outs stand apart in the source and are kept apart here.

Tests used:
[1] = system: HCT116 human colon carcinoma cell line; assay: In vitro cell proliferation (MTT) assay, HCT116; format: cell-based; conditions: for IC50: Homo sapiens, HCT-116, MTT, 72 h exposure
Description: (§1) The targeted compounds were tested for their in-vitro anti-cancer activity against three tumor cell lines (HCT116, Hep G2 and MCF-7). Doxorubicin was included in the experiments as a reference cytotoxic compound. Exponentially growing cells from different cancer cell lines were trypsinized, counted and seeded at the appropriate densities into 96-well microtiter plates. Cells then were incubated in a humidified atmosphere at 37 °C for 24 h. Then, cells were exposed to different concentrations of compounds for 72 h. Then the viability of treated cells was determined using MTT technique (described latter).
(§2) Three cancer cell lines including human colon carcinoma (HCT116), human breast adenocarcinoma (MCF-7) and human hepatocellular carcinoma (Hep G2), were purchased from American Type Cell Culture Collection (ATCC, Manassas, VA, USA) and grown on the appropriate growth medium Dulbecco’s modified Eagle’s medium (DMEM) or Roswell Park Memorial Institute medium (RPMI 1640) supplemented with […] of streptomycin, 100 units/mL of penicillin and 10% of heat-inactivated fetal bovine serum in a humidified, 5% (v/v) CO2 atmosphere at 37 °C [34]. Cytotoxicity assay by 3-[4,5-dimethylthiazole-2-yl]-2,5-diphenyltetrazolium bromide (MTT).
(§3) Exponentially growing cells from different cancer cell lines were trypsinized, counted and seeded at the appropriate densities (2000–1000 cells/0.33 cm^2 well) into 96-well microtiter plates. Cells then were incubated in a humidified atmosphere at 37 °C for 24 h. Then, cells were exposed to different concentrations of compounds (0.1, 10, 100, 1000 µM) for 72 h. Then the viability of treated cells was determined using MTT technique as follow. Media were removed; cells were incubated with 200 μL of 5% MTT solution/well (Sigma Aldrich, Darmstadt, Germany) and were allowed to metabolize the dye into a colored-insoluble formazan crystal for 2 h. The remaining MTT solution were discarded from the wells and the formazan crystals were dissolved in 200 µl/well acidified isopropanol for 30 min, covered with aluminum foil and with continuous shaking using a MaxQ 2000 plate shaker (Thermo Fisher Scientific Inc, Waltham, MA, USA) at room temperature. Absorbance were measured at 570 nm using a Stat Fax^R 4200 plate reader (Awareness Technology, Inc., Awareness Technology, FL, USA). The cell viability was expressed as percentage of control and the concentration that induces 50% of maximum inhibition of cell proliferation (IC50) were determined using Graph Pad Prism version 5 software (Graph Pad Software Inc, San Diego, CA, USA) (1,2).

[2] = system: Hep G2 human hepatocellular carcinoma cell line; assay: In vitro cell proliferation (MTT) assay, Hep G2; format: cell-based; conditions: for IC50: Homo sapiens, HepG2, MTT, 72 h exposure
Description: as §1, §2, §3

[3] = system: MCF-7 human breast adenocarcinoma cell line; assay: In vitro cell proliferation (MTT) assay, MCF-7; format: cell-based; conditions: for IC50: Homo sapiens, MCF7, MTT, 72 h exposure
Description: as §1, §2, §3

[4] = target: T1, VEGFR-2 (Homo sapiens, UniProt P35968); assay: In vitro VEGFR-2 inhibition assay (Kinase-Glo Plus luminescence); format: biochemical; conditions: read-out: % of VEGFR-2 Inhibition
T1 construct: purchased Bio Science Corporation (BPS), San Diego, CA, USA
Description: In an attempt to investigate the possible mechanism of action of the synthesized compounds based on structural similarity with sorafenib, all of them were tested for VEGFR-2 inhibitory activity at Bio Science Corporation (BPS, San Diego, CA, USA). The assay was performed using the Kinase-Glo Plus luminescence kinase assay kit (Promega, San Diego, CA, USA). It measures kinase activity by quantitating the amount of ATP remaining in solution following a kinase reaction. […].
The in-vitro enzyme inhibition determination for the synthesized compounds was carried out at Bio Science Corporation (BPS)-San Diego, CA, USA. The assay was performed using Kinase-Glo Plus luminescence kinase assay kit (Promega), where the kinase activity was measured by quantitating the amount of ATP remaining in solution following a kinase reaction. The luminescent signal from the assay is correlated with the amount of ATP present and is inversely correlated with the amount of kinase activity. Our compounds were diluted with 10% DMSO and 5 µL of the dilution was added to a 50 µL reaction so that the final concentration of DMSO is 1% in all of reactions. All of the enzymatic reactions were conducted at 30 °C for 40 min. The 50 µL reaction mixture contains 40 mM Tris, pH 7.4, 10 mM MgCl2, 0.1 mg/mL BSA, 1 mM DTT, 10 µM ATP, Kinase substrate and the enzyme. After the enzymatic reaction, 50 µL of Kinase-Glo Plus Luminescence kinase assay solution (Promega San Diego, CA, USA) was added to each reaction and incubate the plate for 5 min at room temperature. Luminescence signal was measured using a BioTek Synergy 2 microplate reader.
Kinase activity assays were performed in duplicate at each concentration. The luminescence data were analyzed using the computer software, Graphpad Prism. The difference between luminescence intensities in the absence of Kinase (Lut) and in the presence of Kinase (Luc) was defined as 100% activity (Lut − Luc). Using luminescence signal (Lu) in the presence of the compound, % activity was calculated as:% activity = {(Lut − Lu)(Lut − Luc)} × 100% where Lu = the luminescence intensity in the presence of the compound.

T1 sequence (P35968 20-1356): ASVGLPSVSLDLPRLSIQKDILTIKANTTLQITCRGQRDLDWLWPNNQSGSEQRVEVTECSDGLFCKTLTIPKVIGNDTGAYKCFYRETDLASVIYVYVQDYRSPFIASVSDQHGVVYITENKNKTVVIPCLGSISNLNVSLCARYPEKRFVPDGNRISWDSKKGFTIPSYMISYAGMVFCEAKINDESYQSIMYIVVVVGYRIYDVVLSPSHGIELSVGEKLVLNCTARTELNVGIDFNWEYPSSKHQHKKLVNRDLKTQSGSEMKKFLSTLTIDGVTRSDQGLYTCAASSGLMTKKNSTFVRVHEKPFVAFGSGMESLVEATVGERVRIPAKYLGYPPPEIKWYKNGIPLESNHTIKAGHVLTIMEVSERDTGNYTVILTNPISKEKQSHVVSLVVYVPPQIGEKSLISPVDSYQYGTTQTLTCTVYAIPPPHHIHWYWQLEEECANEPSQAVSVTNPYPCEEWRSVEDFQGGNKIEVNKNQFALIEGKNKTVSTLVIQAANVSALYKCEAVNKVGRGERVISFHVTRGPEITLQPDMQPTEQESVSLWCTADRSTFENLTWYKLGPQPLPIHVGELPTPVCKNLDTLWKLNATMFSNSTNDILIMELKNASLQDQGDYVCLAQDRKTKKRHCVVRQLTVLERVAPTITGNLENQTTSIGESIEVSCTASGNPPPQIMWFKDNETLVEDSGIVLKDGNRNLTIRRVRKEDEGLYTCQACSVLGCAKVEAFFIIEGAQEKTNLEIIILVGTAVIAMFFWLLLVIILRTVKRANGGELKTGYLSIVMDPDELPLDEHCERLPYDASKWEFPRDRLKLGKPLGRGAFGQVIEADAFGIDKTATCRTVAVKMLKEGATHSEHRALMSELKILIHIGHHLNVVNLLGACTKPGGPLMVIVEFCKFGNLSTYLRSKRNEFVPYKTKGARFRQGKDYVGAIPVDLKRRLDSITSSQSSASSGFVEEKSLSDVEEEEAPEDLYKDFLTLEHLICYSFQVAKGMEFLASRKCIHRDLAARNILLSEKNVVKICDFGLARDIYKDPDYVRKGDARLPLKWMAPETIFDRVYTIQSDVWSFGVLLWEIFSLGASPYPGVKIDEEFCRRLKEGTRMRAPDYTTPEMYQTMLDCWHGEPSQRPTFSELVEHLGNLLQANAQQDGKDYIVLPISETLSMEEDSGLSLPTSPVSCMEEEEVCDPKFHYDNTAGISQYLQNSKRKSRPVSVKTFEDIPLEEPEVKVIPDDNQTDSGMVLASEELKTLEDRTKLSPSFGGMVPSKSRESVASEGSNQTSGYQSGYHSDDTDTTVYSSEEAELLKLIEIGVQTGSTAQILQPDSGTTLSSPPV

IC50 [1] | IC50 [2] | IC50 [3] | inhibition at 10 µM ([4]; single concentration of 10 µM) | melting point | Compound | inhibition at 10 µM [4] | anti-cancer activity against HCT116 cell line (in words) [1] | anti-cancer activity against Hep G2 cell line (in words) [2] | loss of activity towards Hep G2 on conversion of thiourea VIIIa into the urea ([2]; relative to VIIIa) | anti-cancer activity against MCF-7 cell line (in words) [3]
302 µM | 490 µM | 537 µM | 4% | 250 to 252 °C | Cc1ccc(S(=O)(=O)Nc2ccc(Nc3nc4ccccc4nc3Cl)cc2)cc1 [XVIIIa, N-(4-((3-Chloroquinoxalin-2-yl)amino)phenyl)-4-methylbenzenesulfonamide] | – | – | – | – | –
– | – | – | 3% | 245 to 246 °C | Cc1ccc(C(=O)Nc2ccc(Nc3nc4ccccc4nc3Cl)cc2)cc1 [XVId, N-(4-((3-Chloroquinoxalin-2-yl)amino)phenyl)-4-methylbenzamide] | – | – | – | – | –
309 µM | 575 µM | 170 µM | 10% | 190 to 191 °C | S=C(Nc1ccccc1)Nc1ccc(Nc2nc3ccccc3nc2Cl)cc1 [XVIIa, 1-(4-((3-Chloroquinoxalin-2-yl)amino)phenyl)-3-phenylthiourea] | – | – | – | – | –
– | – | – | – | – | CN[C@@H]1C[C@H]2O[C@@](C)([C@@H]1OC)n1c3ccccc3c3c4c(c5c6ccccc6n2c5c31)C(=O)NC4 [Staurosporine, staurosporine, reference compound] | 100% | – | – | – | –
> 1000 µM | > 1000 µM | > 1000 µM | 4% | 233 to 235 °C | O=C(Nc1ccc(Nc2nc3ccccc3nc2Cl)cc1)c1ccc(Cl)cc1 [XVIb, 4-Chloro-N-(4-((3-chloroquinoxalin-2-yl)amino)phenyl) benzamide] | – | – | – | – | –
257 µM | 616 µM | 692 µM | 6% | > 300 °C | O=C(Nc1ccc(Cl)cc1)Nc1ccc(Nc2nc3ccccc3nc2Cl)cc1 [XVIIc, 1-(4-Chlorophenyl)-3-(4-((3-chloroquinoxalin-2-yl)amino)phenyl)urea] | – | – | – | – | –
38 µM | 98 µM | 13.5 µM | 4% | > 300 °C | Cc1nc2ccccc2nc1Nc1ccc(NC(=O)Nc2ccccc2)cc1 [Compound VIIIb, 1-(4-((3-Methylquinoxalin-2-yl)amino)phenyl)-3-phenylurea] | – | weak activity | no significant inhibitory activity | 10 fold | moderate activity
21.9 µM | 22.9 µM | 22.9 µM | 3% | 198 to 199 °C | Cc1ccc(S(=O)(=O)Nc2ccc(Nc3nc4ccccc4nc3C)cc2)cc1 [IXa, 4-Methyl-N-(4-((3-methylquinoxalin-2-yl)amino)phenyl) benzenesulphonamide] | – | – | – | – | –
0.62 µM | 1.2 µM | 0.9 µM | – | – | COc1cccc2c1C(=O)c1c(O)c3c(c(O)c1C2=O)C[C@@](O)(C(=O)CO)C[C@@H]3O[C@H]1C[C@H](N)[C@H](O)[C@H](C)O1 [Doxorubicin, reference compound] | – | – | – | – | –
11 µM | 36 µM | 30 µM | 5% | 280 to 281 °C | Cc1cccc(NC(=O)Nc2ccc(Nc3nc4ccccc4nc3C)cc2)c1 [Compound VIIId, 1-(4-((3-Methylquinoxalin-2-yl)amino)phenyl)-3-(m-tolyl)urea] | – | moderate anti-cancer activity | weak activity | – | weak activity
347 µM | 513 µM | 324 µM | 8% | 270 to 273 °C | O=C(Nc1ccc(Nc2nc3ccccc3nc2Cl)cc1)c1ccccc1 [XVIa, N-(4-((3-Chloroquinoxalin-2-yl)amino)phenyl)benzamide] | – | – | – | – | –
190 µM | 513 µM | 64.5 µM | 5% | > 300 °C | Cc1cccc(NC(=O)Nc2ccc(Nc3nc4ccccc4nc3Cl)cc2)c1 [XVIId, 1-(4-((3-Chloroquinoxalin-2-yl)amino)phenyl)-3-(m-tolyl) urea] | – | – | – | – | –
